Tests used:
[1] = test system: A549/c-jun cells; experiment: Apoptosis in A549/c-jun transfectants (morphology, DNA fragmentation, annexin V, PARP Western blot); format: cell-based, human; details: 25 μM
[2] = test system: A549 cells; experiment: Apoptosis in A549 cells treated with TPA, PEITC-NAC or TPA plus PEITC-NAC (photography, DAPI staining); format: cell-based, human; details: TPA 100 nM 12 h prior, then PEITC-NAC 24 h
From the text: Assay for single cell DNA strand breaks: A549 cells treated with or without TPA, PEITC-NAC or TPA plus PEITC-NAC were collected at the times specified in the text, cytocentrifuged and stained with 4′-6′diamidino-2-phenylindole (DAPI). The photographs were taken using an Olympus AX 70 microscope (Melville, N.Y.) with fluorescence and SPOT RT Slider digital image system (Diagnostic Instruments Inc., Sterling Heights, Mich.). Arrows indicated the typical apoptotic features of DNA strand breakage and nuclear fragmentation.
TPA (100 nM) was added to A549 cells 12 h prior to addition of PEITC-NAC, which was added 24 h before photography of cells, protein isolation, or DAPI staining. […] These cells were treated identically, but were stained with the DNA fluorochrome DAPI.

CC(=O)N[C@@H](CSC(=S)NCCc1ccccc1)C(=O)O [PEITC-NAC, N-acetylcysteine Conjugate of phenethyl isothiocyanate]
PARP 89 kD cleavage fragment ([1]; 3 h): the most evident cleavage | PARP protein ([1]; 24 h): maintained a significant levels of intact PARP protein | apoptosis compared with control-vector transfected cells ([1]; 24 h): enhanced apoptosis | incidence of apoptosis in TPA-pretreated cells compared with PEITC-NAC alone [2]: a much higher incidence of apoptosis

Source: patent US20060241178A1, “Compositions and methods for treating lung cancer” (priority 2002, published 2006)
